The source made the active and inactive calls. The rule behind the calls is not given here.
Assays:
[1] = test system: NCI-H1792; test: Downregulation of XIAP mRNA expression level in human NCI-H1792 cells at 0.1 to 1 uM for 24 hrs by qRT-PCR analysis; format: functional, cell-based; conditions: dose 0.1-1 µM
[2] = test system: DV-90; test: Downregulation of FLIP gene in human DV-90 cells after 24 hrs by microarray profiling analysis; format: functional, cell-based
[3] = test system: DV-90; test: Induction of cell cycle arrest in human DV-90 cells assessed as accumulation of cells at G2/M phase at 0.1 uM for 24 hrs by Click-iT EdU Alexa Fluor 647 flow cytometric assay kit analysis (reference value: 24%); format: functional
[4] = test system: LCLC-97TM1; test: Downregulation of c-MYC mRNA expression level in human LCLC-97TM1 cells at 0.1 to 1 uM for 24 hrs by qRT-PCR analysis; format: functional, cell-based; conditions: dose 0.1-1 µM
[5] = test system: NCI-H1373; test: Induction of apoptosis in human NCI-H1373 cells assessed as early apoptotic cells at 0.5 uM for 24 hrs by annexin V-PI staining based flow cytometric analysis (reference value: 0.6%); format: functional
[6] = test system: DV-90; test: Induction of apoptosis in human DV-90 cells assessed as viable cells at 0.5 uM for 24 hrs by annexin V-PI staining based flow cytometric analysis (reference value: 81.5%); format: functional; conditions: read-out: Activity
[7] = test system: NCI-H2030; test: Downregulation of c-MYC protein level in human NCI-H2030 cells at 100 to 5000 nM upto 24 hrs by Western blot analysis; format: functional, cell-based; conditions: dose 100-5000 nM
[8] = test system: NCI-H1373; test: Induction of cell cycle arrest in human NCI-H1373 cells assessed as accumulation of cells at G0/G1 phase at 1 uM for 24 hrs by Click-iT EdU Alexa Fluor 647 flow cytometric assay kit analysis (reference value: 40%); format: functional
[9] = test system: NCI-H1373; test: Induction of TRAIL dependent apoptosis in human NCI-H1373 cells assessed as early apoptotic cells at 1 uM in presence of […] by annexin V-PI staining based flow cytometric analysis (reference value: 0.5%); format: functional
[10] = test system: NCI-H358; test: Downregulation of FLIP mRNA expression level in human NCI-H358 cells at 0.1 to 1 uM for 24 hrs by qRT-PCR analysis; format: functional, cell-based; conditions: dose 0.1-1 µM
[11] = test system: NCI-H2030; test: Antiproliferative activity against human NCI-H2030 cells at 500 to 2500 nM in presence of TNF by cell titre glo assay; format: functional, cell-based; conditions: dose 500-2500 nM
[12] = test system: DV-90; test: Induction of cell cycle arrest in human DV-90 cells assessed as accumulation of cells at G2/M phase at 1 uM for 24 hrs by Click-iT EdU Alexa Fluor 647 flow cytometric assay kit analysis (reference value: 24%); format: functional
[13] = test system: A549; test: Antitumor activity against human A549 cells assessed as test to control tumor ratio at 50 mg/kg, ip for 28 days relative to control; format: functional; conditions: time 28 day
[14] = test system: NCI-H1373; test: Induction of TRAIL dependent apoptosis in human NCI-H1373 cells assessed as viable cells at 1 uM by annexin V-PI staining based flow cytometric analysis (reference value: 87.6%); format: functional; conditions: read-out: Activity
[15] = test system: DV-90; test: Induction of apoptosis in human DV-90 cells assessed as necrotic cells at 0.5 uM for 24 hrs by annexin V-PI staining based flow cytometric analysis (reference value: 5.4%); format: functional
[16] = test system: LCLC-97TM1; test: Downregulation of XIAP mRNA expression level in human LCLC-97TM1 cells at 0.1 to 1 uM for 24 hrs by qRT-PCR analysis; format: functional, cell-based; conditions: dose 0.1-1 µM
[17] = test system: NCI-H460; test: Induction of apoptosis in human NCI-H460 cells assessed as early apoptotic cells at 0.5 uM for 24 hrs by annexin V-PI staining based flow cytometric analysis (reference value: 0.2%); format: functional
[18] = test system: SK-LU-1; test: Downregulation of XIAP protein expression level in human SK-LU-1 cells at 1 uM for 24 hrs by […] analysis; format: functional, cell-based
[19] = test system: A549; test: Induction of TRAIL dependent apoptosis in human A549 cells by annexin V-PI staining based flow cytometric analysis; format: functional, cell-based
[20] = test system: NCI-H2347; test: Downregulation of c-MYC mRNA expression level in human NCI-H2347 cells at 0.1 to 1 uM for 24 hrs by qRT-PCR analysis; format: functional, cell-based; conditions: dose 0.1-1 µM
[21] = test system: NCI-H460; test: Induction of apoptosis in human NCI-H460 cells assessed as viable cells at 2.5 uM for 24 hrs by annexin V-PI staining based flow cytometric analysis (reference value: 94%); format: functional; conditions: read-out: Activity
[22] = test system: NCI-H1373; test: Induction of apoptosis in human NCI-H1373 cells assessed as early apoptotic cells at 2.5 uM for 24 hrs by annexin V-PI staining based flow cytometric analysis (reference value: 1.7%); format: functional
[23] = test system: NCI-H460; test: Induction of apoptosis in human NCI-H460 cells assessed as early apoptotic cells at 0.5 uM for 24 hrs by annexin V-PI staining based flow cytometric analysis (reference value: 0.3%); format: functional
[24] = test system: A549; test: Induction of apoptosis in human A549 cells assessed as viable cells at 0.5 uM for 24 hrs by annexin V-PI staining based flow cytometric analysis (reference value: 97.7%); format: functional; conditions: read-out: Activity
[25] = test system: DV-90; test: Induction of apoptosis in human DV-90 cells assessed as early apoptotic cells at 0.5 uM for 48 hrs by annexin V-PI staining based flow cytometric analysis (reference value: 1.0%)
[26] = test system: A549; test: Induction of apoptosis in human A549 cells assessed as necrotic cells at 0.5 uM for 24 hrs by annexin V-PI staining based flow cytometric analysis (reference value: 0.9%); format: functional
[27] = test system: DV-90; test: Induction of cell cycle arrest in human DV-90 cells assessed as accumulation of cells at S phase at 0.25 uM for 24 hrs by Click-iT EdU Alexa Fluor 647 flow cytometric assay kit analysis (reference value: 30%); format: functional
[28] = test system: NCI-H1373; test: Induction of cell cycle arrest in human NCI-H1373 cells assessed as accumulation of cells at G0/G1 phase at 0.5 uM for 24 hrs by Click-iT EdU Alexa Fluor 647 flow cytometric assay kit analysis (reference value: 48%); format: functional
[29] = test system: NCI-H1373; test: Induction of cell cycle arrest in human NCI-H1373 cells assessed as accumulation of cells at G0/G1 phase at 0.25 uM for 24 hrs by Click-iT EdU Alexa Fluor 647 flow cytometric assay kit analysis (reference value: 45%); format: functional
[30] = test system: DV-90; test: Induction of cell cycle arrest in human DV-90 cells assessed as accumulation of cells at G0/G1 phase at 1 uM for 24 hrs by Click-iT EdU Alexa Fluor 647 flow cytometric assay kit analysis (reference value: 45%); format: functional
[31] = test system: DV-90; test: Induction of cell cycle arrest in human DV-90 cells assessed as accumulation of cells at G2/M phase at 1 uM for 24 hrs by Click-iT EdU Alexa Fluor 647 flow cytometric assay kit analysis (reference value: 25%); format: functional
[32] = test system: NCI-H1373; test: Induction of cell cycle arrest in human NCI-H1373 cells assessed as accumulation of cells at G0/G1 phase at 1 uM for 24 hrs by Click-iT EdU Alexa Fluor 647 flow cytometric assay kit analysis (reference value: 48%); format: functional
[33] = test system: NCI-H460; test: Induction of cell cycle arrest in human NCI-H460 cells assessed as accumulation of cells at G0/G1 phase at 1 uM for 24 hrs by Click-iT EdU Alexa Fluor 647 flow cytometric assay kit analysis (reference value: 45%); format: functional

Question: With `Cc1sc2c(c1C)C(c1ccc(Cl)cc1)=N[C@@H](CC(=O)OC(C)(C)C)c1nnc(C)n1-2` as the compound, how does the Activity [1] read?
Answer: The Activity was “Active”.

Question: And the Activity [2]?
Answer: Its Activity is “Active”.

Question: And the Activity [3]?
Answer: The Activity was 31%.

Question: What about the Activity [4] of the same compound?
Answer: The Activity was “Active”.

Question: And the Activity [5]?
Answer: Its Activity is 2.5%.

Question: What about the viability at 0.5 µM [6] of the same compound?
Answer: Its viability at 0.5 µM is 61.3%.

Question: What about the Activity [7] of the same compound?
Answer: Its Activity is “inactive”.

Question: And the Activity [8]?
Answer: The Activity was 68%.

Question: What about the Activity [9] of the same compound?
Answer: The Activity was 6.1%.

Question: And the Activity [10]?
Answer: Its Activity is “Active”.

Question: What about the Activity [11] of the same compound?
Answer: The Activity was “Active”.

Question: What about the Activity [12] of the same compound?
Answer: The Activity was 27%.

Question: What about the T/C [13] of the same compound?
Answer: Its T/C is 79%.

Question: And the viability at 1 µM [14]?
Answer: Its viability at 1 µM is 64.4%.

Question: And the Activity [15]?
Answer: The Activity was 25.4%.

Question: And the Activity [16]?
Answer: Its Activity is “Active”.

Question: And the Activity [17]?
Answer: The Activity was 0.2%.

Question: And the Activity [18]?
Answer: The Activity was “Active”.

Question: What about the Activity [19] of the same compound?
Answer: The Activity was “Active”.

Question: What about the Activity [20] of the same compound?
Answer: The Activity was “Active”.

Question: What about the viability at 2.5 µM [21] of the same compound?
Answer: Its viability at 2.5 µM is 90.4%.

Question: Which Activity [22] does the source give for `Cc1sc2c(c1C)C(c1ccc(Cl)cc1)=N[C@@H](CC(=O)Nc1ccc(O)cc1)c1nnc(C)n1-2` [BIRABRESIB] here?
Answer: The Activity was 1.8%.

Question: What about the Activity [23] of the same compound?
Answer: The Activity was 0.2%.

Question: And the viability at 0.5 µM [24]?
Answer: Its viability at 0.5 µM is 98.1%.

Question: What about the Activity [25] of the same compound?
Answer: Its Activity is 2.8%.

Question: And the Activity [26]?
Answer: Its Activity is 0.7%.

Question: `CCNC(=O)C[C@@H]1N=C(c2ccc(Cl)cc2)c2cc(OC)ccc2-n2c(C)nnc21` [MOLIBRESIB] was tested. Which Activity [27] did it give?
Answer: The Activity was 22%.

Question: What about the Activity [28] of the same compound?
Answer: The Activity was 73%.

Question: What about the Activity [29] of the same compound?
Answer: Its Activity is 49%.

Question: What about the Activity [30] of the same compound?
Answer: The Activity was 50%.

Question: What about the Activity [31] of the same compound?
Answer: The Activity was 27%.

Question: And the Activity [32]?
Answer: The Activity was 76%.

Question: What about the Activity [33] of the same compound?
Answer: Its Activity is 52%.
